Measurements as given in ChEMBL document CHEMBL2440076, “New triarylpyrazoles as broad-spectrum anticancer agents: design, synthesis, and biological evaluation” (Eur J Med Chem, 2013).

Experiments:
Type in all cases: functional
[1] = test system: OVCAR-8; assay: Growth inhibition of human OVCAR8 cells assessed as cell growth at 3X10'-7 M after 48 hrs by sulforhodamine B assay; conditions: OVCAR-8, 48 h, read-out: Activity
[2] = test system: UACC-62; assay: Growth inhibition of human UACC62 cells assessed as cell growth at 3X10'-7 M after 48 hrs by sulforhodamine B assay; conditions: UACC-62, 48 h, read-out: Activity
[3] = test system: UACC-257; assay: Growth inhibition of human UACC257 cells assessed as cell growth at 3X10'-7 M after 48 hrs by sulforhodamine B assay; conditions: UACC-257, 48 h, read-out: Activity
[4] = test system: SK-MEL-28; assay: Growth inhibition of human SK-MEL-28 cells assessed as cell growth at 3X10'-7 M after 48 hrs by sulforhodamine B assay; conditions: SK-MEL-28, 48 h, read-out: Activity
[5] = test system: U-251; assay: Growth inhibition of human U251 cells assessed as cell growth at 3X10'-7 M after 48 hrs by sulforhodamine B assay; conditions: U-251, 48 h, read-out: Activity
[6] = test system: HL-60(TB); assay: Growth inhibition of human HL-60(TB) cells assessed as cell growth at 3X10'-7 M after 48 hrs by sulforhodamine B assay; conditions: HL-60, 48 h, read-out: Activity
[7] = test system: T47D; assay: Growth inhibition of human T47D cells assessed as cell growth at 3X10'-8 M after 48 hrs by sulforhodamine B assay; conditions: read-out: Activity
[8] = test system: BT-549; assay: Growth inhibition of human BT549 cells assessed as cell growth at 3X10'-8 M after 48 hrs by sulforhodamine B assay; conditions: BT-549, 48 h, read-out: Activity
[9] = test system: RXF 393; assay: Growth inhibition of human RXF393 cells assessed as cell growth at 3X10'-8 M after 48 hrs by sulforhodamine B assay; conditions: RXF 393, 48 h, read-out: Activity
[10] = test system: CAKI-1; assay: Growth inhibition of human CAKI-1 cells assessed as cell growth at 3X10'-8 M after 48 hrs by sulforhodamine B assay; conditions: CAKI-1, 48 h, read-out: Activity
[11] = test system: OVCAR-8; assay: Growth inhibition of human OVCAR8 cells assessed as cell growth at 3X10'-8 M after 48 hrs by sulforhodamine B assay; conditions: OVCAR-8, 48 h, read-out: Activity
[12] = test system: T47D; assay: Growth inhibition of human T47D cells assessed as cell growth at 3X10'-5 M after 48 hrs by sulforhodamine B assay; conditions: read-out: Activity
[13] = test system: UACC-257; assay: Growth inhibition of human UACC257 cells assessed as cell growth at 3X10'-8 M after 48 hrs by sulforhodamine B assay; conditions: UACC-257, 48 h, read-out: Activity
[14] = test system: SK-MEL-28; assay: Growth inhibition of human SK-MEL-28 cells assessed as cell growth at 3X10'-8 M after 48 hrs by sulforhodamine B assay; conditions: SK-MEL-28, 48 h, read-out: Activity
[15] = test system: SK-MEL-2; assay: Growth inhibition of human SK-MEL-2 cells assessed as cell growth at 3X10'-8 M after 48 hrs by sulforhodamine B assay; conditions: SK-MEL-2, 48 h, read-out: Activity
[16] = test system: Malme-3M; assay: Growth inhibition of human MALME-3M cells assessed as cell growth at 3X10'-8 M after 48 hrs by sulforhodamine B assay; conditions: read-out: Activity
[17] = test system: COLO 205; assay: Growth inhibition of human COLO205 cells assessed as cell growth at 3X10'-8 M after 48 hrs by sulforhodamine B assay; conditions: COLO 205, 48 h, read-out: Activity
[18] = test system: ACHN; assay: Growth inhibition of human ACHN cells assessed as cell growth at 3X10'-5 M after 48 hrs by sulforhodamine B assay; conditions: read-out: Activity
[19] = test system: A498; assay: Growth inhibition of human A498 cells assessed as cell growth at 3X10'-9 M after 48 hrs by sulforhodamine B assay; conditions: A498, 48 h, read-out: Activity
[20] = test system: OVCAR-4; assay: Growth inhibition of human OVCAR4 cells assessed as cell growth at 3X10'-9 M after 48 hrs by sulforhodamine B assay; conditions: OVCAR-4, 48 h, read-out: Activity
[21] = test system: NCI-H522; assay: Growth inhibition of human NCI-H522 cells assessed as cell growth at 3X10'-5 M after 48 hrs by sulforhodamine B assay; conditions: NCI-H522, 48 h, read-out: Activity
[22] = test system: HL-60(TB); assay: Growth inhibition of human HL-60(TB) cells assessed as cell growth at 3X10'-5 M after 48 hrs by sulforhodamine B assay; conditions: HL-60, 48 h, read-out: Activity
[23] = test system: T47D; assay: Growth inhibition of human T47D cells assessed as cell growth at 3X10'-6 M after 48 hrs by sulforhodamine B assay; conditions: read-out: Activity
[24] = test system: BT-549; assay: Growth inhibition of human BT549 cells assessed as cell growth at 3X10'-6 M after 48 hrs by sulforhodamine B assay; conditions: BT-549, 48 h, read-out: Activity
[25] = test system: TK-10; assay: Growth inhibition of human TK10 cells assessed as cell growth at 3X10'-6 M after 48 hrs by sulforhodamine B assay; conditions: TK-10, 48 h, read-out: Activity
[26] = test system: SN12C; assay: Growth inhibition of human SN12C cells assessed as cell growth at 3X10'-6 M after 48 hrs by sulforhodamine B assay; conditions: read-out: Activity
[27] = test system: SK-MEL-2; assay: Growth inhibition of human SK-MEL-2 cells assessed as cell growth at 3X10'-9 M after 48 hrs by sulforhodamine B assay; conditions: SK-MEL-2, 48 h, read-out: Activity
[28] = test system: LOX IMVI; assay: Growth inhibition of human LOXIMVI cells assessed as cell growth at 3X10'-9 M after 48 hrs by sulforhodamine B assay; conditions: read-out: Activity
[29] = test system: Malme-3M; assay: Growth inhibition of human MALME-3M cells assessed as cell growth at 3X10'-9 M after 48 hrs by sulforhodamine B assay; conditions: read-out: Activity
[30] = test system: U-251; assay: Growth inhibition of human U251 cells assessed as cell growth at 3X10'-9 M after 48 hrs by sulforhodamine B assay; conditions: U-251, 48 h, read-out: Activity
[31] = test system: NCI-H522; assay: Growth inhibition of human NCI-H522 cells assessed as cell growth at 3X10'-9 M after 48 hrs by sulforhodamine B assay; conditions: NCI-H522, 48 h, read-out: Activity
[32] = test system: ACHN; assay: Growth inhibition of human ACHN cells assessed as cell growth at 3X10'-6 M after 48 hrs by sulforhodamine B assay; conditions: read-out: Activity
[33] = test system: MDA-MB-435; assay: Growth inhibition of human MDA-MB-435 cells assessed as cell growth at 3X10'-6 M after 48 hrs by sulforhodamine B assay; conditions: MDA-MB-435, 48 h, read-out: Activity
[34] = test system: SF-295; assay: Growth inhibition of human SF295 cells assessed as cell growth at 3X10'-6 M after 48 hrs by sulforhodamine B assay; conditions: SF-295, 48 h, read-out: Activity
[35] = test system: SW-620; assay: Growth inhibition of human SW620 cells assessed as cell growth at 3X10'-6 M after 48 hrs by sulforhodamine B assay; conditions: SW-620, 48 h, read-out: Activity
[36] = test system: NCI-H522; assay: Growth inhibition of human NCI-H522 cells assessed as cell growth at 3X10'-6 M after 48 hrs by sulforhodamine B assay; conditions: NCI-H522, 48 h, read-out: Activity
[37] = test system: NCI-H226; assay: Growth inhibition of human NCI-H226 cells assessed as cell growth at 3X10'-6 M after 48 hrs by sulforhodamine B assay; conditions: NCI-H226, 48 h, read-out: Activity
[38] = test system: RXF 393; assay: Growth inhibition of human RXF393 cells assessed as cell growth at 3X10'-7 M after 48 hrs by sulforhodamine B assay; conditions: RXF 393, 48 h, read-out: Activity

Row | Compound | growth at 0.3 µM [1] [%] | growth at 0.3 µM [2] [%] | growth at 0.3 µM [3] [%] | growth at 0.3 µM [4] [%] | growth at 0.3 µM [5] [%] | growth at 0.3 µM [6] [%] | growth at 0.03 µM [7] [%] | growth at 0.03 µM [8] [%] | growth at 0.03 µM [9] [%] | growth at 0.03 µM [10] [%] | growth at 0.03 µM [11] [%] | growth at 30 µM [12] [%] | growth at 0.03 µM [13] [%] | growth at 0.03 µM [14] [%] | growth at 0.03 µM [15] [%] | growth at 0.03 µM [16] [%] | growth at 0.03 µM [17] [%] | growth at 30 µM [18] [%] | growth at 0.003 µM [19] [%] | growth at 0.003 µM [20] [%] | further results
1 | O=C(Nc1cccc(-n2cc(-c3ccncc3)c(-c3ccc(Cl)c(O)c3)n2)c1)Nc1ccc(Cl)c(C(F)(F)F)c1 | 89 | 89 | 93 | 95 | 82 | 138 | 103 | 106 | 93 | 91 | 95 | 10 | 94 | 97 | 113 | 94 | 100 | 2 | 91 | 99 | growth at 30 µM [21]: -55%; growth at 30 µM [22]: 6%; growth at 3 µM [23]: 11%; growth at 3 µM [24]: 12%; growth at 3 µM [25]: 24%; growth at 3 µM [26]: 15%; growth at 0.003 µM [27]: 113%; growth at 0.003 µM [28]: 100%; growth at 0.003 µM [29]: 100%; growth at 0.003 µM [30]: 98%; growth at 0.003 µM [31]: 96%; growth at 3 µM [32]: 8%; growth at 3 µM [33]: -31%; growth at 3 µM [34]: -22%; growth at 3 µM [35]: 5%; growth at 3 µM [36]: -11%; growth at 3 µM [37]: 30%; growth at 0.3 µM [38]: 69%
2 | COc1cc(-c2nn(-c3cccc(NC(=O)c4ccc(Cl)c(C(F)(F)F)c4)c3)cc2-c2ccncc2)ccc1Cl | 93 | 92 | 90 | 95 | 91 | 116 | 96 | 96 | 99 | 93 | 98 | 18 | 102 | 100 | 100 | 78 | 97 | 32 | 95 | 98 | growth at 30 µM [21]: -7%; growth at 30 µM [22]: 23%; growth at 3 µM [23]: 40%; growth at 3 µM [24]: 62%; growth at 3 µM [25]: 74%; growth at 3 µM [26]: 68%; growth at 0.003 µM [27]: 92%; growth at 0.003 µM [28]: 92%; growth at 0.003 µM [29]: 80%; growth at 0.003 µM [30]: 96%; growth at 0.003 µM [31]: 89%; growth at 3 µM [32]: 47%; growth at 3 µM [33]: -32%; growth at 3 µM [34]: 27%; growth at 3 µM [35]: 55%; growth at 3 µM [36]: 12%; growth at 3 µM [37]: 59%; growth at 0.3 µM [38]: 89%
